Measurements published in patent US9586961B2, “Homopiperazine derivatives as protein tyrosine kinase inhibitors and pharmaceutical use thereof” (LEO PHARMA A/S, priority 2010, dated 2017).
pEC50: −log10 of the molar value.

Key:
Assay type in all cases: biochemical
JAK3 = biological target: T1, JAK3 (Homo sapiens, UniProt P52333); experiment: JAK3 kinase assay (HTRF, inhibition of phosphorylation of a synthetic peptide); settings: catalytic domain, His-tag; 2 μM ATP (Km); read-out: JAK3 kinase inhibitory activity (EC50)
T1 construct: All four purified enzymes contain only the catalytic domain; His (N); purchased Carna Biosciences, Inc; host or cells: baculovirus expression system
T1 sequence (P52333 822-1111 limits assumed): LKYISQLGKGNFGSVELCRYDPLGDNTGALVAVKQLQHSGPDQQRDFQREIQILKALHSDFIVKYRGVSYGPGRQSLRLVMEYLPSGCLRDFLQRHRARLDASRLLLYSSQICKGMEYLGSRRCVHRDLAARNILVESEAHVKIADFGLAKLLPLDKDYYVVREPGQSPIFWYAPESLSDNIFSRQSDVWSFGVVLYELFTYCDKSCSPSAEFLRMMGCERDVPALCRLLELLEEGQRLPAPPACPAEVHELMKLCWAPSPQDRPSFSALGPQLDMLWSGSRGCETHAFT
In short: (§1)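 Baculovirus-expressed catalytic domains (GST-JAK1 aa 850-1154, GST-TYK2 aa 871-1187, His-JAK2, His-JAK3) phosphorylate 1 μM biotin-TK peptide 20-30 min at RT in 50 mM Hepes pH 7.0 with ATP at Km: JAK1 7 μM, JAK2 4 μM, JAK3 2 μM, TYK2 13 μM; 0.75% DMSO. Stopped with EDTA, HTRF read overnight.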

JAK1 = biological target: T2, JAK1 (Homo sapiens, UniProt P23458); experiment: JAK1 kinase assay (HTRF, inhibition of phosphorylation of a synthetic peptide); settings: catalytic domain aa 850-1154, GST-tag; 7 μM ATP (Km); read-out: JAK1 kinase inhibitory activity (EC50)
T2 construct: JAK1 (aa 850-1154) and TYK2 (aa 871-1187) are expressed with an N-terminally fused GST-tag; GST (N); purchased Carna Biosciences, Inc; host or cells: baculovirus expression system
T2 sequence (P23458 850-1154): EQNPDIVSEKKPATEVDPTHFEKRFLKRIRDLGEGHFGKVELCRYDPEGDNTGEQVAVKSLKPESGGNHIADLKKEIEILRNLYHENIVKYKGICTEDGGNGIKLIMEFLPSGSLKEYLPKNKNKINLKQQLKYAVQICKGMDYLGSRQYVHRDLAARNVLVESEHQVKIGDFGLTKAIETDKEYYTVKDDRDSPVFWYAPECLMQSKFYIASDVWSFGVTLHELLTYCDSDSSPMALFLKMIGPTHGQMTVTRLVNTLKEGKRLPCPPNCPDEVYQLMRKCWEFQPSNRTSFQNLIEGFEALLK
In short: as §1

JAK2 = biological target: T3, JAK2 (Homo sapiens, UniProt O60674); experiment: JAK2 kinase assay (HTRF, inhibition of phosphorylation of a synthetic peptide); settings: catalytic domain, His-tag; 4 μM ATP (Km); read-out: JAK2 kinase inhibitory activity (EC50)
T3 construct: All four purified enzymes contain only the catalytic domain; His (N); purchased Carna Biosciences, Inc; host or cells: baculovirus expression system
T3 sequence (O60674 849-1124 limits assumed): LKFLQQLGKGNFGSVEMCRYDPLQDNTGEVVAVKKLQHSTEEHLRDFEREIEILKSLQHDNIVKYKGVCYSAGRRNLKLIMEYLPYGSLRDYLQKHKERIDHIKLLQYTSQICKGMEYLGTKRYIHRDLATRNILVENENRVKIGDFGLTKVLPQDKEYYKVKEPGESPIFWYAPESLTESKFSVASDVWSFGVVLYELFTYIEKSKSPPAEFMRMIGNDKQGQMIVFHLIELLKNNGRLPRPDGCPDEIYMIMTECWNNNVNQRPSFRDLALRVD
In short: as §1

TYK2 = biological target: T4, TYK2 (Homo sapiens, UniProt P29597); experiment: TYK2 kinase assay (HTRF, inhibition of phosphorylation of a synthetic peptide); settings: catalytic domain aa 871-1187, GST-tag; 13 μM ATP (Km); read-out: TYK2 kinase inhibitory activity (EC50)
T4 construct: JAK1 (aa 850-1154) and TYK2 (aa 871-1187) are expressed with an N-terminally fused GST-tag; GST (N); purchased Carna Biosciences, Inc; host or cells: baculovirus expression system
T4 sequence (P29597 871-1187): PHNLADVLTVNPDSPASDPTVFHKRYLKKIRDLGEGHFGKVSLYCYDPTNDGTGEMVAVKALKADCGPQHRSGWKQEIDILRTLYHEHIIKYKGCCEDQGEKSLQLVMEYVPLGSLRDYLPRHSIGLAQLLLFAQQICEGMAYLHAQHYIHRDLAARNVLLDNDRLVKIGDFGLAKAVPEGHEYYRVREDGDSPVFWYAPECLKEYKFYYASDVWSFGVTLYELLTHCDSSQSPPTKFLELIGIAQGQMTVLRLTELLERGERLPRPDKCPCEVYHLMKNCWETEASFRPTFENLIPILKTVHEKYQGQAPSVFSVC
In short: as §1

SMILES | pEC50 (JAK3) | pEC50 (JAK1) | pEC50 (JAK2) | pEC50 (TYK2)
COc1csc(C(=O)N2CCN(c3ncnc4[nH]ccc34)CC3(CC3)C2)c1 [Example 22, (4-methoxy-2-thienyl)-[5-(7H-pyrrolo[2,3-d]pyrimidin-4-yl)-5,8-diazaspiro[2.6]nonan-8-yl]methanone] | 6.00 to 7.00 | > 7.00 | 6.00 to 7.00 | < 6.00
CCC1=NOC(C(=O)N2CCCN(c3ncnc4[nH]ccc34)CC23CC3)C1 (racemic) [Example 123, (3-ethyl-4,5-dihydroisoxazol-5-yl)-[5-(7H-pyrrolo[2,3-d]pyrimidin-4-yl)-5,9-diazaspiro[2.6]nonan-9-yl]methanone] | 6.00 to 7.00 | 6.00 to 7.00 | 6.00 to 7.00 | < 6.00
N#Cc1ccc(C(=O)N2CCN(c3ncnc4[nH]ccc34)CC3(CC3)C2)cc1 [Example 62, 4-[5-(7H-pyrrolo[2,3-d]pyrimidin-4-yl)-5,8-diazaspiro[2.6]nonane-8-carbonyl]benzonitrile] | 6.00 to 7.00 | 6.00 to 7.00 | 6.00 to 7.00 | < 6.00
O=C(CC1CCCC1)N1CCCN(c2ncnc3[nH]ccc23)CC12CC2 [Example 92, 2-cyclopentyl-1-[5-(7H-pyrrolo[2,3-d]pyrimidin-4-yl)-5,9-diazaspiro[2.6]nonan-9-yl]ethanone] | 6.00 to 7.00 | > 7.00 | 6.00 to 7.00 | < 6.00
CNS(=O)(=O)c1csc(C(=O)N2CCN(c3ncnc4[nH]ccc34)CC3(CC3)C2)c1 [Example 28, N-methyl-5-[5-(7H-pyrrolo[2,3-d]pyrimidin-4-yl)-5,8-diazaspiro[2.6]nonane-8-carbonyl]thiophene-3-sulfonamide] | 6.00 to 7.00 | 6.00 to 7.00 | > 7.00 | < 6.00
CCN(CC)S(=O)(=O)N1CCN(c2ncnc3[nH]ccc23)CC2(CC2)C1 [Example 104, N,N-diethyl-5-(7H-pyrrolo[2,3-d]pyrimidin-4-yl)-5,8-diazaspiro[2.6]nonane-8-sulfonamide] | < 6.00 | < 6.00 | 6.00 to 7.00 | < 6.00
N#CCCC(=O)N1CCCN(c2ncnc3[nH]ccc23)CC12CC2 [Example 61, 4-oxo-4-[5-(7H-pyrrolo[2,3-d]pyrimidin-4-yl)-5,9-diazaspiro[2.6]nonan-9-yl]butanenitrile] | 6.00 to 7.00 | 6.00 to 7.00 | 6.00 to 7.00 | < 6.00
N#Cc1cccc(C(=O)N2CCCN(c3ncnc4[nH]ccc34)CC23CC3)c1 [Example 57, 3-[5-(7H-pyrrolo[2,3-d]pyrimidin-4-yl)-5,9-diazaspiro[2.6]nonane-9-carbonyl]benzonitrile] | 6.00 to 7.00 | 6.00 to 7.00 | > 7.00 | 6.00 to 7.00
c1nc(N2CCNCC3(CC3)C2)c2cc[nH]c2n1 [Example 290] | < 6.00 | < 6.00 | < 6.00 | < 6.00
Nc1nc(N2CCCN(Cc3ccccc3)C3(CC3)C2)c2cc[nH]c2n1 [Example 67, 4-(9-benzyl-5,9-diazaspiro[2.6]nonan-5-yl)-7H-pyrrolo[2,3-d]pyrimidin-2-amine] | < 6.00 | < 6.00 | < 6.00 | < 6.00
O=C(C1CCCCC1)N1CCCN(c2ncnc3[nH]ccc23)CC12CC2 [Example 93, cyclohexyl-[5-(7H-pyrrolo[2,3-d]pyrimidin-4-yl)-5,9-diazaspiro[2.6]nonan-9-yl]methanone] | 6.00 to 7.00 | > 7.00 | > 7.00 | 6.00 to 7.00
